# Data taken from ChEMBL document CHEMBL4152208, “Synthesis and structure-activity relationships of quinolinone and quinoline-based P2X7 receptor antagonists and their anti-sphere formation activities in glioblastoma cells” (Eur J Med Chem, 2018).
# Active and inactive are the calls of the source. The calls are words filed in the database; no cut-off is given here.
# Experiments:
# [1] = molecular target: T1, P2X purinoceptor 2 (Homo sapiens) (UniProt Q9UBL9); test: Antagonist activity at human P2X2 receptor expressed in 1321N1 cells assessed as inhibition of ATP-induced calcium flux at 1 uM measured for 30 secs at 0.4 secs intervals by Flou-4-AM dye based fluorescence assay relative to control; format: cell-based
# T1 sequence (whole entry): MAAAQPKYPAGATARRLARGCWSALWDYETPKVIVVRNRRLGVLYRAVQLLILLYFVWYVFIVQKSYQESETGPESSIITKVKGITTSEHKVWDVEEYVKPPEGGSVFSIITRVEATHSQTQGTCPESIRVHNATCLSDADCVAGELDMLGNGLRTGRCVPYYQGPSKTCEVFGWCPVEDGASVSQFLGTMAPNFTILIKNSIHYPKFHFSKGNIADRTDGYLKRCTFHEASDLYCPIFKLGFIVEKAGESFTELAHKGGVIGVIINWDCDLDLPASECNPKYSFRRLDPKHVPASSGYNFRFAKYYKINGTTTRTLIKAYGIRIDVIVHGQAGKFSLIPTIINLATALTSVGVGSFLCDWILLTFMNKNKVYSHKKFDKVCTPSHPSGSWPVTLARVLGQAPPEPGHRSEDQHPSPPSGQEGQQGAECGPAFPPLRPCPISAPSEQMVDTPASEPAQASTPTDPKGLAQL
# [2] = molecular target: T2, P2X purinoceptor 1 (Homo sapiens) (UniProt P51575); test: Antagonist activity at human P2X1 receptor expressed in 1321N1 cells assessed as inhibition of ATP-induced calcium flux at 1 uM measured for 30 secs at 0.4 secs intervals by Flou-4-AM dye based fluorescence assay relative to control; format: cell-based
# T2 sequence (whole entry): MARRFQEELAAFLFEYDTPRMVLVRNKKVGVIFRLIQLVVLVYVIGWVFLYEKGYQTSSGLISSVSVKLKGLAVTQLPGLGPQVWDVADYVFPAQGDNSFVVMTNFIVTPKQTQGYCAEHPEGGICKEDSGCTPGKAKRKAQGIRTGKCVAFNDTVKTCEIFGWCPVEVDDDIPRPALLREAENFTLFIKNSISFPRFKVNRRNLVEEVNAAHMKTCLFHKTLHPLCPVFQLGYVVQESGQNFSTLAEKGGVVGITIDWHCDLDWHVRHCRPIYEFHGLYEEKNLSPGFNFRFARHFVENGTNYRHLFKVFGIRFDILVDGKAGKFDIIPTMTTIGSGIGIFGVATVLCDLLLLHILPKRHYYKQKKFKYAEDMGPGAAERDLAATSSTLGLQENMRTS
# [3] = organism: Homo sapiens; test: Antiproliferative activity against human TS15-88 cells at 50 uM after 24 hrs by MTS assay; format: functional, cell-based
# [4] = Cytotoxicity against HEK293 cells expressing human P2X7 receptor assessed as cell survival at 10 uM by MTT assay relative to control; format: cell-based; conditions: read-out: Survival
# [5] = molecular target: T3, P2X purinoceptor 7 (Homo sapiens, UniProt Q99572); test: Antagonist activity at human P2X7 receptor expressed in HEK293 cells assessed as inhibition of BzATP-induced EtBr uptake after 2 hrs by fluorescence assay relative to control; format: cell-based
# T3 sequence (Q99572 whole entry): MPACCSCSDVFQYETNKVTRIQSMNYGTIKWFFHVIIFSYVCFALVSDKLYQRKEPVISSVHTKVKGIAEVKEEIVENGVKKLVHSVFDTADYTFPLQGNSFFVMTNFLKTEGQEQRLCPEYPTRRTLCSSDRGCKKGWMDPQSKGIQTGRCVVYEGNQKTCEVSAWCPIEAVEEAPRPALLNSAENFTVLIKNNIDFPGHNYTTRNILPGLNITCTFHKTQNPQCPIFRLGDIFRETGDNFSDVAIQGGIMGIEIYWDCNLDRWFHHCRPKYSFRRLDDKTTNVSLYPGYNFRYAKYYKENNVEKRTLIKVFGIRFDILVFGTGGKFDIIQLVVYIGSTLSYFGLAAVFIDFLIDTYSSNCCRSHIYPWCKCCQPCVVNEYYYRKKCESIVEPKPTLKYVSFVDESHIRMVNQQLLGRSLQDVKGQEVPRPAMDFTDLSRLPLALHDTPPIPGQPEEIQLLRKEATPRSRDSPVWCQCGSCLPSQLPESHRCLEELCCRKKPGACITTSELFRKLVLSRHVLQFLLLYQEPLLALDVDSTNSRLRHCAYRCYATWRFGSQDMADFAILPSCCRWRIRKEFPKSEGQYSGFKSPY
# [6] = Ratio of drug level in zebrafish brain to blood at 10 mg/kg, po administered via gavage measured 0.5 hrs post compound administration by LC-MS/MS analysis; format: ADME, organism-based, Danio rerio
# [7] = Drug level in zebrafish brain at 10 mg/kg, po administered via gavage measured 0.5 hrs post compound administration by LC-MS/MS analysis; format: ADME, organism-based, Danio rerio; conditions: read-out: Drug uptake
# [8] = Increase in MYC mRNA expression in human TS15-88 cells after 72 hrs by qRT-PCR analysis relative to control; format: functional
# [9] = Reduction of […] mRNA expression in human TS15-88 cells after 72 hrs by qRT-PCR analysis relative to control; format: functional; parameters: scale not given: the % may be the effect or the level left
# [10] = molecular target: T3, P2X purinoceptor 7; test: Antagonist activity at P2X7 in LPS/IFN gamma differentiated human THP-1 cells assessed as inhibition of BzATP-induced IL-1beta release preincubated for 30 mins followed by BzATP stimulation for 30 mins by ELISA; format: cell-based
# [11] = Drug level in zebrafish blood at 10 mg/kg, po administered via gavage measured 0.5 hrs post compound administration by LC-MS/MS analysis; format: ADME, organism-based, Danio rerio; conditions: read-out: Drug uptake
# [12] = Metabolic stability in rat liver microsomes assessed as parent compound remaining at 1 uM up to 30 mins in presence of NADPH by LC-MS/MS analysis; format: ADME, microsome; conditions: read-out: Stability
# [13] = organism: Homo sapiens; test: Inhibition of neurosphere formation in human TS15-88 cells assessed as decrease in surface area of sphere at 50 uM after 5 days by microscopic analysis; format: functional, cell-based
# [14] = Metabolic stability in human liver microsomes assessed as parent compound remaining at 1 uM up to 30 mins in presence of NADPH by LC-MS/MS analysis; format: ADME, microsome; conditions: read-out: Stability
# [15] = Increase in CD133 mRNA expression in human TS15-88 cells after 72 hrs by qRT-PCR analysis relative to control; format: functional
smiles,measurement,setting,value
O=C(CC12CC3CC(CC(C3)C1)C2)Nc1cccc2nc(Cl)ccc12,inhibition,[1],7%
same,inhibition,[2],13%
same,Activity,[3],Active
same,viability at 10 µM,[4],98%
same,IC50,[5],4 nM
same,Kp at 0.5 h,[6],2.03
same,concentration at 0.5 h,[7],425 ng/g
same,Activity,[8],41%
same,Activity,[9],41%
same,IC50,[10],7 nM
same,concentration at 0.5 h,[11],235 ng/mL
same,"remaining at 0.5 h, 1 µM",[12],0.06%
same,inhibition,[13],Active
same,"remaining at 0.5 h, 1 µM",[14],0.04%
same,Activity,[15],30%
